Our source for the TGI and GI50 values is PubChem BioAssay (NCI).

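How tested: cells in 96-well plates exposed to compound for 48 hours at five concentrations. The concentration for 50% growth inhibition is given as GI50. The concentration for full growth arrest is given as TGI.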 A value given as a limit tells only on which side of the number the result lay.

Holding throughout (experiment): NCI-60 cell line screen, 48 h
Assay [1] has as its system COLO 205 colon.
Assay [2] concerns HCT-116 colon.
Assay [3] relates to IGROV1 ovarian.
Assay [4] has as its system M14 melanoma.
Assay [5] deals with MALME-3M melanoma.
The test system of assay [6] is MOLT-4 leukemia.
The subject of assay [7] is NCI-H226 lung.
For assay [8], the system named is NCI-H522 lung.
In assay [9] the test system is SW-620 colon.

Consider `CC1=C(C(=O)Nc2cc(=O)n(C)c(=O)n2C)C(c2ccc([N+](=O)[O-])cc2)C(C(=O)Nc2cc(=O)n(C)c(=O)n2C)=C(C)N1`, for which the TGI in assay [1], in assay [2], in assay [3], in [4], in assay [5] and in assay [6] was above 100 µM throughout. The TGI in assay [7], in assay [8] and in assay [9] was above 100 µM in each case.

For `COc1cc(O)c2c(c1)C(=O)C=C(Cl)C2=O`, the TGI in [1], in assay [2], in assay [3], in [4], in [5] and in assay [6] was above 100 µM in each case. Also, the TGI in [7], in [8] and in assay [9] was above 100 µM each time.

Take `CCOC(=O)C(=O)Nc1ccc(Cl)cc1C`: the TGI in assay [1], in assay [2], in assay [3], in assay [4], in [5] and in assay [6] was above 100 µM each time. Further, the TGI in [7], in assay [8] and in assay [9] was above 100 µM throughout.

With `CN(CCc1ccccn1)c1nc(=[N+](C)C)ss1`, the TGI in [1], in [3], in [4], in [5], in [6] and in [8] was above 100 µM throughout. The compound also had a TGI in assay [9] above 100 µM.

Consider `NCCN.NCCN.O=C[O-].O=C[O-].[Co+3].[O-][Cl+3]([O-])([O-])[O-]`, for which the GI50 in [1], in [2], in assay [3], in assay [4], in assay [6] and in [7] was above 100 µM in each case. For the same compound, the GI50 in [8] and in assay [9] was above 100 µM throughout. In addition, the TGI in assay [1], in assay [2], in assay [3], in assay [4], in [6] and in assay [7] was above 100 µM each time. Also, the TGI in assay [8] and in assay [9] was above 100 µM throughout.

As for `Cc1ccccc1C(=O)Oc1ccc(O)cc1`, the TGI in assay [1], in assay [2], in [3], in [4], in [5] and in assay [6] was above 100 µM in each case. Moreover, the TGI in [7], in assay [8] and in assay [9] was above 100 µM throughout.

Regarding `O=C(Cc1nc2ccccc2s1)C(=O)Nc1cccc(Cl)c1`, the TGI in assay [1], in assay [2], in [3], in assay [4], in [5] and in assay [7] was above 100 µM in each case. The TGI in [8] and in assay [9] was above 100 µM each time.

For `COC(=O)CCC(=O)Nc1cc(Cl)ccc1Cl`, the TGI in assay [2], in assay [3], in assay [4], in assay [5], in assay [6] and in assay [7] was above 100 µM in each case. The TGI in assay [8] and in assay [9] was above 100 µM throughout.

Regarding `CC(C)C1CC2C(=O)N(c3ccccc3)C(=O)C2c2[nH]c3ccccc3c21` (stereo not given), the TGI in assay [2] was 14.8 µM; in [3], above 100 µM; in assay [4] it was above 100 µM; in assay [5], above 100 µM; in assay [6], above 100 µM; in [7] it was 36.8 µM. In [9], this compound displayed a TGI above 100 µM.

In the case of `O=C(O)/C(Cl)=C(\Cl)C(=O)NC1C2CC3CC(C2)CC1C3` (stereo not given), the TGI in assay [1], in [2], in assay [3], in assay [4], in [5] and in assay [6] was above 100 µM each time. The TGI in assay [7], in assay [8] and in assay [9] was above 100 µM throughout.

As for `COc1ccc(C(=O)C(c2ccc(OC)cc2)C2OC(=O)C(Cl)=C2Cl)cc1` (stereo not given), the TGI in assay [2], in [3], in assay [4], in [5], in assay [6] and in [7] was above 100 µM in each case. For the same compound, the TGI in [8] and in assay [9] was above 100 µM throughout.

Consider `COc1ccc(NC(=O)CC/C(CC(=O)C(C)(C)C)=N\NC(=O)C(N)=O)cc1`, for which the TGI in [1], in assay [2], in assay [3], in assay [4], in [5] and in assay [6] was above 100 µM in each case. Moreover, the TGI in assay [7] and in assay [9] was above 100 µM in each case.

For `CN(CC#N)C1CCCC[C@H]1O` (stereo not given in full), the TGI in [1], in assay [2], in [3], in [4], in [5] and in [6] was above 100 µM throughout. Also, the TGI in assay [7], in assay [8] and in assay [9] was above 100 µM each time.

As for `CN(/N=C/c1cccc2cccnc12)c1ccc([N+](=O)[O-])cc1`, the TGI in assay [1], in assay [2], in [3], in [4], in assay [5] and in [6] was above 100 µM in each case. The TGI in assay [7] and in assay [9] was above 100 µM throughout.

Consider `CN1C(c2ccccc2)CS(=O)(=O)CS1(=O)=O` (stereo not given), for which the TGI in assay [1], in assay [2], in assay [3], in assay [4], in [5] and in assay [9] was above 100 µM throughout.
